Patent US7811352B2, “Fertilizer compositions and methods of using” (priority 2005, dated 2010)

What was measured:
[1] = tested on: creeping bentgrass for greens; experiment: Turfgrass quality and color ratings, creeping bentgrass for greens (Example 12); type: in vivo; details: scale 1-10
Text: In this Example, the effect of a fertilizer comprising lysine on turfgrass growth was examined. The effects of lysine (HCl) and LIQUID LYSINE on a common type of golf course greens quality turfgrass (creeping bentgrass for greens) were compared with those of CoRoN® brand fertilizer (commercially available from Helena Chemical Co., Collierville, Tenn.).
Nine fertilizer treatments comprising three concentrations of each fertilizer composition (Corono® (N—P—K, 14-2-14), LIQUID LYSINE (N—P—K, 10-2-1), and lysine (HCl) (N—P—K, 15-2-1)) were prepared and applied to 3 replications of creeping bentgrass for use on golf course greens. The lysine (HCl) (250 g) was dissolved in water (500 mL) prior to application. Each fertilizer treatment was applied in concentrations of 0.7 g N/m^2, 1.4 g N/m^2, and 2.8 g N/m^2. All applications were made using an Ortho Heavy Duty hand pump sprayer with all products being mixed with 126 mL of water for application. Plot size was 2 ft×6 ft set up as a randomized complete block. Irrigation was applied following application. Plots were rated for turfgrass quality and color (scale of 1-10 where 10=dark green turf, 1=dead/brown turf, and 6minimally acceptable turf) and phytotoxicity (% bum) throughout the study period. Quality, color, and phytotoxicity were measured on day 7, day 14, day 2I1, day 28, day 35, and day 42 after application. All data was subject to statistical analysis and significant means were determined.

Bermuda grass = experiment: Phytotoxicity (% burn), Bermuda grass golf course fairways (Example 13); type: in vivo
Method: In this Example, the effect of a fertilizer comprising lysine on turfgrass growth was examined. The effects of lysine (HCl) and LIQUID LYSINE on a common type of golf course fairway quality turfgrass (Bermuda green) were compared with those of CoRoN® brand fertilizer.
Six fertilizer treatments comprising two concentrations of each fertilizer composition (Coron® (N—P—K, 14-2-14), LIQUID LYSINE (N—P—K, 10-2-1), and lysine (HCl) (N—P—K, 15-2-1)) were prepared and applied to 3 replications of Bermuda grass for use on golf course fairways. The lysine (HCl) was applied as a granular using a Scotts 2 foot drop spreader on a setting of 4.5. The solutions of LIQUID LYSINE and Coran were applied using a Birchmeier backpack sprayer with a 5 foot spray pattern. Each fertilizer treatment was applied in concentrations 3.0 lb N/1000 ft^2 and 6.0 lb N/1000 ft^2. Plot size was 5 ft×60 ft set up as a randomized complete block. Irrigation was applied following application, Plots were rated for turfgrass quality and color (scale of 1-10 where 10=dark green turf 1=dead/brown turf and 6=minimally acceptable turf) and phytotoxicity (% burn) throughout the study period and compared with two untreated plots. […] All data was subject to statistical analysis and significant means were determined.

[2] = Solubility of L-lysine (HCl) in water; type: physicochemical; details: at 25° C., read-out: solubility in H2O
[3] = tested on: lawn height, Kentucky bluegrass; experiment: Color rating of lawn height Kentucky bluegrass after fertilization (Example 5); type: in vivo; details: about two weeks after application
Method: In this Example, the efficacy of fertilizers on lawn height, Kentucky bluegrass was examined. Fertilizer compositions according to several embodiments of the present disclosure were prepared and compared to the commercial fertilizer products, urea 46-0-0 (granular) fertilizer, Lebanon fertilizer 21-0-12 (granular, commercially available from Lebanon Seaboard Corporation, Lebanon, Pa.) and Milorganite 6-2-0 (granular, commercially available from Milorganite, Milwaukee, Wis.). The fertilizer compositions were applied to the turf grass prior to winter dormancy at a rate equivalent to supplying about 1.0 pounds of nitrogen (N) per 1000 square feet. Each of the fertilizer compositions were applied at substantially equal rates of lbs of nitrogen (N) per 1000 square feet. Table 2 illustrates the response of lawn height, Kentucky bluegrass to fertilization using various exemplary fertilizers of the present invention, taken about two weeks after application of the fertilizer. The letters in the Color and Injury columns correspond to Duncan's Multiple Range Test.

[4] = tested on: fairway height, creeping bentgrass; experiment: Color rating of fairway height creeping bentgrass after fertilization (Example 6); type: in vivo; details: about two weeks after application
Method: In this Example, the efficacy of fertilizers on fairway height, creeping bentgrass was examined. Fertilizer compositions according to several embodiments of the present disclosure were prepared and compared to the commercial fertilizer products, urea 46-0-0 (granular) fertilizer, Lebanon fertilizer 21-0-12 (granular, commercially available from Lebanon Seaboard Corporation, Lebanon, Pa.) and Milorganite 6-2-0 (granular, commercially available from Milorganite, Milwaukee, Wis.). The fertilizer compositions were applied to turf prior to winter dormancy at a rate equivalent to supplying about 1.0 pounds of nitrogen (N) per 1000 square feet. Each of the fertilizer compositions were applied at substantially equal rates of lbs of nitrogen (N) per 1000 square feet. Table 3 illustrates the response of fairway height, creeping bentgrass to fertilization using various exemplary fertilizers of the present invention, taken about two weeks after application of the fertilizer. The letters in the Color and Injury columns correspond to Duncan's Multiple Range Test. Numbers (means) in a column followed by the same letter are not statistically different at P=0.05.

[5] = 1.09 Lbs. product/1000 square feet
[6] = 2.17 Lbs. product/1000 square feet
[7] = 6.51 Lbs. product/1000 square feet

Question: For `Cl.NCCCC[C@H](N)C(=O)O` [Lys (HCl) 15% N, L-lysine monohydrochloride], which “Color Ratings - Creeping Bentgrass” value ([1]; Rate 0.7 gN/m^2, Day 7) is on record?
Answer: Its value is 6.0abc.

Question: What about the “Quality Ratings - Creeping Bentgrass” value ([1]; Rate 0.7 gN/m^2, Day 7) of the same compound?
Answer: Its value is 5.3a.

Question: What about the “Color Ratings - Creeping Bentgrass” value ([1]; Rate 0.7 gN/m^2, Day 14) of the same compound?
Answer: Its value is 6.0cd.

Question: And the “Quality Ratings - Creeping Bentgrass” value ([1]; Rate 0.7 gN/m^2, Day 14)?
Answer: The value was 6.3cd.

Question: And the “Color Ratings - Creeping Bentgrass” value ([1]; Rate 0.7 gN/m^2, Day 21)?
Answer: Its value is 6.3a.

Question: And the “Quality Ratings - Creeping Bentgrass” value ([1]; Rate 0.7 gN/m^2, Day 21)?
Answer: The value was 6.7a.

Question: What about the “Color Ratings - Creeping Bentgrass” value ([1]; Rate 0.7 gN/m^2, Day 28) of the same compound?
Answer: Its value is 6.3ab.

Question: What about the “Quality Ratings - Creeping Bentgrass” value ([1]; Rate 0.7 gN/m^2, Day 28) of the same compound?
Answer: The value was 6.3a.

Question: And the “Color Ratings - Creeping Bentgrass” value ([1]; Rate 0.7 gN/m^2, Day 35)?
Answer: The value was 6.3a.

Question: And the “Quality Ratings - Creeping Bentgrass” value ([1]; Rate 0.7 gN/m^2, Day 35)?
Answer: Its value is 6.3ab.

Question: What about the “Color Ratings - Creeping Bentgrass” value ([1]; Rate 0.7 gN/m^2, Day 42) of the same compound?
Answer: The value was 7.3a.

Question: And the “Quality Ratings - Creeping Bentgrass” value ([1]; Rate 0.7 gN/m^2, Day 42)?
Answer: The value was 7.0a.

Question: What about the “Color Ratings - Creeping Bentgrass” value ([1]; Rate 1.4 gN/m^2, Day 7) of the same compound?
Answer: The value was 5.0c.

Question: What about the “Quality Ratings - Creeping Bentgrass” value ([1]; Rate 1.4 gN/m^2, Day 7) of the same compound?
Answer: The value was 5.7a.

Question: And the “Color Ratings - Creeping Bentgrass” value ([1]; Rate 1.4 gN/m^2, Day 14)?
Answer: Its value is 5.0e.

Question: What about the “Quality Ratings - Creeping Bentgrass” value ([1]; Rate 1.4 gN/m^2, Day 14) of the same compound?
Answer: Its value is 5.7de.

Question: And the “Color Ratings - Creeping Bentgrass” value ([1]; Rate 1.4 gN/m^2, Day 21)?
Answer: The value was 6.0a.

Question: And the “Quality Ratings - Creeping Bentgrass” value ([1]; Rate 1.4 gN/m^2, Day 21)?
Answer: The value was 7.0a.

Question: And the “Color Ratings - Creeping Bentgrass” value ([1]; Rate 1.4 gN/m^2, Day 28)?
Answer: The value was 6.7ab.

Question: What about the “Quality Ratings - Creeping Bentgrass” value ([1]; Rate 1.4 gN/m^2, Day 28) of the same compound?
Answer: The value was 7.0a.

Question: And the “Color Ratings - Creeping Bentgrass” value ([1]; Rate 1.4 gN/m^2, Day 35)?
Answer: Its value is 5.7ab.

Question: What about the “Quality Ratings - Creeping Bentgrass” value ([1]; Rate 1.4 gN/m^2, Day 35) of the same compound?
Answer: Its value is 5.3cd.

Question: And the “Color Ratings - Creeping Bentgrass” value ([1]; Rate 1.4 gN/m^2, Day 42)?
Answer: Its value is 7.0a.

Question: What about the “Quality Ratings - Creeping Bentgrass” value ([1]; Rate 1.4 gN/m^2, Day 42) of the same compound?
Answer: Its value is 6.7a.

Question: What about the “Color Ratings - Creeping Bentgrass” value ([1]; Rate 2.8 gN/m^2, Day 7) of the same compound?
Answer: Its value is 5.3bc.

Question: What about the “Quality Ratings - Creeping Bentgrass” value ([1]; Rate 2.8 gN/m^2, Day 7) of the same compound?
Answer: Its value is 5.7a.

Question: And the “Color Ratings - Creeping Bentgrass” value ([1]; Rate 2.8 gN/m^2, Day 14)?
Answer: Its value is 5.0e.

Question: What about the “Quality Ratings - Creeping Bentgrass” value ([1]; Rate 2.8 gN/m^2, Day 14) of the same compound?
Answer: The value was 5.3e.

Question: What about the “Color Ratings - Creeping Bentgrass” value ([1]; Rate 2.8 gN/m^2, Day 21) of the same compound?
Answer: Its value is 6.0a.

Question: What about the “Quality Ratings - Creeping Bentgrass” value ([1]; Rate 2.8 gN/m^2, Day 21) of the same compound?
Answer: The value was 7.0a.

Question: And the “Color Ratings - Creeping Bentgrass” value ([1]; Rate 2.8 gN/m^2, Day 28)?
Answer: Its value is 6.3ab.

Question: And the “Quality Ratings - Creeping Bentgrass” value ([1]; Rate 2.8 gN/m^2, Day 28)?
Answer: Its value is 7.0a.

Question: What about the “Color Ratings - Creeping Bentgrass” value ([1]; Rate 2.8 gN/m^2, Day 35) of the same compound?
Answer: Its value is 5.0b.

Question: And the “Quality Ratings - Creeping Bentgrass” value ([1]; Rate 2.8 gN/m^2, Day 35)?
Answer: The value was 4.3 days.

Question: What about the “Color Ratings - Creeping Bentgrass” value ([1]; Rate 2.8 gN/m^2, Day 42) of the same compound?
Answer: Its value is 6.3a.

Question: What about the “Quality Ratings - Creeping Bentgrass” value ([1]; Rate 2.8 gN/m^2, Day 42) of the same compound?
Answer: The value was 6.7a.

Question: And the “Phytotoxicity (% Burn) - Bermuda grass” value (Bermuda grass; 3.0 lb N/1000 ft^2, Day 7)?
Answer: Its value is 11.7bc %.

Question: What about the “Phytotoxicity (% Burn) - Bermuda grass” value (Bermuda grass; 3.0 lb N/1000 ft^2, Day 12) of the same compound?
Answer: The value was 6.7b %.

Question: What about the “Phytotoxicity (% Burn) - Bermuda grass” value (Bermuda grass; 3.0 lb N/1000 ft^2, Day 19) of the same compound?
Answer: The value was 1.7bc %.

Question: And the “Phytotoxicity (% Burn) - Bermuda grass” value (Bermuda grass; 3.0 lb N/1000 ft^2, Day 26)?
Answer: Its value is 0.0b %.

Question: What about the “Phytotoxicity (% Burn) - Bermuda grass” value (Bermuda grass; 3.0 lb N/1000 ft^2, Day 33) of the same compound?
Answer: The value was 0.0a %.

Question: And the “Phytotoxicity (% Burn) - Bermuda grass” value (Bermuda grass; 3.0 lb N/1000 ft^2, Day 40)?
Answer: Its value is 0.0c %.

Question: What about the “Phytotoxicity (% Burn) - Bermuda grass” value (Bermuda grass; 3.0 lb N/1000 ft^2, Day 47) of the same compound?
Answer: Its value is 0.0c %.

Question: And the “Phytotoxicity (% Burn) - Bermuda grass” value (Bermuda grass; 6.0 lb N/1000 ft^2, Day 7)?
Answer: Its value is 21.7a %.

Question: And the “Phytotoxicity (% Burn) - Bermuda grass” value (Bermuda grass; 6.0 lb N/1000 ft^2, Day 12)?
Answer: The value was 11.7a %.

Question: And the “Phytotoxicity (% Burn) - Bermuda grass” value (Bermuda grass; 6.0 lb N/1000 ft^2, Day 19)?
Answer: Its value is 5.0b %.

Question: What about the “Phytotoxicity (% Burn) - Bermuda grass” value (Bermuda grass; 6.0 lb N/1000 ft^2, Day 26) of the same compound?
Answer: The value was 0.0b %.

Question: What about the “Phytotoxicity (% Burn) - Bermuda grass” value (Bermuda grass; 6.0 lb N/1000 ft^2, Day 33) of the same compound?
Answer: Its value is 0.0a %.

Question: What about the “Phytotoxicity (% Burn) - Bermuda grass” value (Bermuda grass; 6.0 lb N/1000 ft^2, Day 40) of the same compound?
Answer: The value was 0.0c %.

Question: What about the “Phytotoxicity (% Burn) - Bermuda grass” value (Bermuda grass; 6.0 lb N/1000 ft^2, Day 47) of the same compound?
Answer: The value was 0.0c %.

Question: And the solubility [2]?
Answer: Its solubility is 500 to 600 mg/mL.

Question: With `NC(N)=O` [Urea, urea, reference compound] as the compound, how does the “Color 1-9 (9 = dark green)” value [3, 5] read?
Answer: The value was 7.0.

Question: And the “Color 1-9 (9 = dark green)” value [3, 6]?
Answer: Its value is 7.3.

Question: What about the “Color 1-9 (9 = dark green)” value [3, 7] of the same compound?
Answer: The value was 7.7.

Question: And the “Color 1-9 (9 = dark green)” value [4, 5]?
Answer: Its value is 6.7.

Question: What about the “Color 1-9 (9 = dark green)” value [4, 6] of the same compound?
Answer: The value was 7.0.

Question: And the “Color 1-9 (9 = dark green)” value [4, 7]?
Answer: The value was 7.7.
